The record followed here is PubChem BioAssay (NCI).

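96-well plates; 48 h exposure; 5 concentrations. Endpoints by linear interpolation between flanking doses. Not reached: highest tested concentration assigned. Here, GI50 denotes the concentration required for 50% inhibition of growth. TGI is the concentration that stops growth completely.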

Test systems include MDA-MB-231 breast; A549 NSCLC; RPMI-8226 leukemia; CCRF-CEM leukemia; HCT-15 colon; SK-OV-3 ovarian; TK-10 renal; UO-31 renal; U251 CNS; SN12C renal.
Common to all, as to experiment: DTP human tumour cell line panel, 48 h

Consider `CCOc1c(Br)cc(C2C(C(=O)OC)=CN(C)C=C2C(=O)OC)cc1OC`, for which the GI50 in the test on MDA-MB-231 breast was 32.8 µM; in the test on A549 NSCLC, 47.8 µM; in the test on RPMI-8226 leukemia it was 45.5 µM; in the test on CCRF-CEM leukemia, 40.1 µM; in the test with HCT-15 colon it was 33.9 µM; in the test on SK-OV-3 ovarian, over 100 µM. Moreover, the GI50 in the test on TK-10 renal was over 100 µM; in the test with UO-31 renal, 28.8 µM; with U251 CNS it was 42.6 µM; in the test with SN12C renal, 78.6 µM. The total growth inhibition concentration (TGI) with MDA-MB-231 breast, with A549 NSCLC, with RPMI-8226 leukemia, in the test with CCRF-CEM leukemia, in the test with HCT-15 colon and with SK-OV-3 ovarian was over 100 µM each time. The TGI in the test with TK-10 renal, in the test on UO-31 renal, in the test with U251 CNS and in the test on SN12C renal was over 100 µM throughout.
As for `Cn1cc(-c2nc(-c3c[nH]c4ncccc34)cs2)c2cc(F)ccc21`, the GI50 was 2.32 µM in the test on MDA-MB-231 breast; 2.81 µM in the test on A549 NSCLC; 2.81 µM with RPMI-8226 leukemia; 3.04 µM in the test with CCRF-CEM leukemia; 2.88 µM in the test on HCT-15 colon; 3.9 µM in the test with SK-OV-3 ovarian. Further, the GI50 in the test with TK-10 renal is 2.78 µM; with UO-31 renal, 2.06 µM; in the test with U251 CNS it was 2.43 µM; in the test with SN12C renal, 3.47 µM. For the same compound, the TGI in the test on MDA-MB-231 breast was 8.36 µM; with A549 NSCLC, over 25.6 µM; in the test on RPMI-8226 leukemia, 48.3 µM; in the test on CCRF-CEM leukemia, over 52.6 µM; in the test on HCT-15 colon it was over 45 µM; with SK-OV-3 ovarian, 32.3 µM. The TGI in the test with TK-10 renal turned out to be 15.3 µM; in the test on UO-31 renal, 8.12 µM; in the test on U251 CNS it was 8.08 µM; in the test with SN12C renal it was 15.3 µM.
With `Cn1cc(C2=C(c3cccc4ccccc34)C(=O)NC2=O)c2ccccc21`, the GI50 in the test with MDA-MB-231 breast is 8.74 µM; in the test with A549 NSCLC it was 7.63 µM; with RPMI-8226 leukemia, 8.18 µM; in the test with CCRF-CEM leukemia it was 8.3 µM; in the test on HCT-15 colon it was 6.66 µM; in the test on SK-OV-3 ovarian, 8.35 µM. Further, the GI50 in the test with TK-10 renal was 9.14 µM; in the test with UO-31 renal, 7.38 µM; in the test on U251 CNS, 7.44 µM; with SN12C renal, 6.58 µM. For the same compound, the TGI is over 25 µM in the test with MDA-MB-231 breast; over 25 µM in the test with A549 NSCLC; over 19.9 µM in the test with RPMI-8226 leukemia; 24.5 µM in the test with CCRF-CEM leukemia; over 25 µM in the test on HCT-15 colon; over 25 µM in the test on SK-OV-3 ovarian. The concentration for total growth inhibition (TGI) with TK-10 renal is over 23.9 µM; in the test with UO-31 renal, over 25 µM; with U251 CNS, over 25 µM; with SN12C renal, over 17.5 µM.
For the compound `Cc1cc(N2CCCCC2)nc(N(CCCNc2ccnc3cc(Cl)ccc23)Cc2ccco2)n1`, the GI50 in the test with MDA-MB-231 breast was 1.73 µM; with A549 NSCLC, 3.34 µM; with RPMI-8226 leukemia it was 1.83 µM; in the test with CCRF-CEM leukemia, 2.01 µM; in the test on HCT-15 colon, 1.62 µM; with SK-OV-3 ovarian, 3.35 µM. Besides, the GI50 in the test on TK-10 renal is 2.63 µM; in the test on UO-31 renal it was 1.17 µM; with U251 CNS it was 1.8 µM; in the test with SN12C renal, 2.14 µM. The TGI with MDA-MB-231 breast was found to be 4.24 µM; with A549 NSCLC, 11.2 µM; with RPMI-8226 leukemia, 4.46 µM; in the test on CCRF-CEM leukemia, 12.6 µM; in the test on HCT-15 colon, 4.88 µM; with SK-OV-3 ovarian, 13.2 µM. For the same compound, the TGI in the test on TK-10 renal came out at 8.12 µM; in the test on UO-31 renal, 2.59 µM; in the test with U251 CNS it was 3.76 µM; in the test on SN12C renal, 7.15 µM.
As for `COc1cccc(C2c3cc4c(cc3OC(C)(O)C2C)OCO4)c1O` (stereo not given), the concentration for total growth inhibition (TGI) with MDA-MB-231 breast is 19.2 µM; with A549 NSCLC it was 66.6 µM; in the test with RPMI-8226 leukemia, over 100 µM; in the test with CCRF-CEM leukemia, 33.8 µM; with HCT-15 colon, 27.8 µM; with SK-OV-3 ovarian it was 42.8 µM. Besides, the TGI in the test with TK-10 renal was determined as 51 µM; in the test on UO-31 renal it was 52.6 µM; in the test on U251 CNS, 21.1 µM; in the test on SN12C renal, 62.3 µM.
In the case of `CC1=CC(=NC(=O)CBr)C=C/C1=N\S(=O)(=O)c1ccccc1`, the GI50 in the test on MDA-MB-231 breast was 2.48 µM; in the test with A549 NSCLC, 13.9 µM; in the test on RPMI-8226 leukemia it was 2.9 µM; in the test on CCRF-CEM leukemia it was 2.45 µM; with HCT-15 colon it was 1.99 µM; in the test with SK-OV-3 ovarian it was 14.2 µM. Besides, the GI50 with TK-10 renal is 2.85 µM; in the test on UO-31 renal, 2.77 µM; with U251 CNS, 3.37 µM; with SN12C renal it was 1.83 µM. For the same compound, the TGI is 6.42 µM in the test with MDA-MB-231 breast; 34.8 µM in the test with A549 NSCLC; 9.35 µM in the test with RPMI-8226 leukemia; 8.16 µM in the test with CCRF-CEM leukemia; 4.67 µM in the test on HCT-15 colon; 27.7 µM in the test with SK-OV-3 ovarian. Moreover, the TGI stood at 7.04 µM with TK-10 renal, 12.6 µM in the test with UO-31 renal, 12.2 µM with U251 CNS and 3.59 µM in the test with SN12C renal.
In the case of `Cn1nccc1Nc1nccc(-c2cc3c(s2)C(C)(C)N(CCN2CCOCC2)C3=O)n1`, the GI50 with MDA-MB-231 breast is 2.8 µM; in the test on A549 NSCLC, 5.27 µM; with RPMI-8226 leukemia, 23.3 µM; with CCRF-CEM leukemia it was 23.4 µM; with HCT-15 colon it was 16.9 µM; in the test on SK-OV-3 ovarian, 17 µM. For the same compound, the GI50 with TK-10 renal is 1.31 µM; in the test with UO-31 renal, 3.76 µM; in the test on U251 CNS it was 33.7 µM; with SN12C renal it was 17.1 µM. For the same compound, the TGI with MDA-MB-231 breast was over 100 µM; with A549 NSCLC it was over 100 µM; in the test with RPMI-8226 leukemia, over 100 µM; in the test with CCRF-CEM leukemia, over 100 µM; in the test with HCT-15 colon it was over 100 µM; in the test on SK-OV-3 ovarian, over 86.2 µM. In addition, the TGI in the test with TK-10 renal, with UO-31 renal, in the test on U251 CNS and in the test with SN12C renal was over 100 µM throughout.
As to `CN(C)c1ccc(N2Cc3ccccc3OC3=C2C(=O)c2c(O)ccc(O)c2C3=O)cn1`, the GI50 in the test with MDA-MB-231 breast was 0.234 µM; in the test with A549 NSCLC, 2.32 µM; in the test with RPMI-8226 leukemia it was 0.235 µM; with CCRF-CEM leukemia, 0.102 µM; in the test with HCT-15 colon, 0.178 µM; in the test on SK-OV-3 ovarian it was 3.05 µM. Besides, the GI50 in the test with TK-10 renal was 0.348 µM; with UO-31 renal, 0.135 µM; with U251 CNS it was 0.311 µM; in the test with SN12C renal it was 0.261 µM. Further, the TGI in the test with MDA-MB-231 breast was 0.745 µM; in the test with A549 NSCLC, 6.03 µM; in the test on RPMI-8226 leukemia, 0.797 µM; in the test with CCRF-CEM leukemia it was 0.815 µM; in the test with HCT-15 colon, 0.502 µM; in the test on SK-OV-3 ovarian, 11.6 µM. Also, the TGI with TK-10 renal was 0.908 µM; in the test with UO-31 renal, 0.351 µM; with U251 CNS, 1.2 µM; in the test with SN12C renal it was 1.03 µM.

A word on the GI50: it is the concentration that inhibits growth by half. One may read the TGI as the concentration at which net growth stops. A lower TGI goes with greater sensitivity of the cells.
